Patent publication US5081031A, “Synthetic polypeptide with type IV collagen activity” (Regents of the University of Minnesota, priority 1989, dated 1992)
Entries after “also recorded” stand apart in the source; their conditions may differ. One block for each substance: values may come before it.

Assays:
[1] = biological target: T1, binding of heparin to peptide Hep-II (Homo sapiens, UniProt P08572); assay: Heparin/peptide interaction specificity: competition of 3H-heparin binding to coated peptide Hep-II by glycosaminoglycans; details: Hep-II coated from 500 μg/ml; 3H-heparin 50,000 cpm per well; 2 h 37° C.
T1 construct: made in house; host or cells: chemical solid-phase (Merrifield) synthesis, no expression host
Procedure: To check the specificity of the interaction between heparin and peptide Hep-II or whether the heparin structure was also critical to this interaction, heparin along with other sulfated glucosaminoglycans, dextran and chondroitin sulfate were used in competition experiments. A standard amount of 50 μg of a solution containing 500 μg/ml of peptide Hep-II was coated on 96-well plates as described above. Wells were treated for two hours with 2 mg/ml BSA in wash buffer. Then, a final volume of 50 μl was added to each well, containing a standard amount of […] (50,000 cpm per well) and various amounts of non-radioactive heparin, dextran or chondroitin sulfate. After incubating for two hours at 37° C., the wells were washed and radioactivity was counted as described above in Example 1.

[2] = reported from U.S. Pat. No. 4,876,332; cited from earlier work
[3] = test system: melanoma and endothelial cells; details: reported from U.S. Pat. No. 4,876,332; cited from earlier work
[4] = test system: bovine aortic endothelial cells; assay: Direct adhesion of endothelial cells to peptide-coated plastic; format: cell-based; details: 35S-labeled cells, 120 min. at 37° C.; increasing coating concentrations
Procedure: Bovine aortic endothelial cells were isolated according to the following protocol. Aortas were obtained from a local slaughterhouse, washed in cold phosphate buffered saline (PBS) (136 mM NaCl, 2.6 mM KCl, 15.2 mM Na2 HPO4, pH 7.2) and processed within 2 hours. Crude collagenase (CLS III, 125-145 units per mg dry weight, Cooper Biomedical) was used at 2 mg/ml in Dulbecco's modified Eagle's medium (DMEM) (GIBCO). The vessel was clamped at the distal end, filled with the collagenase-PBS solution and digestion was carried out for 10 minutes. The lumenal contents were harvested, followed by the addition of fresh collagenase for two additional 10-minute periods. The enzyme-cell suspensions were added to an equal volume of DMEM containing 10% fetal bovine serum (FBS) to inhibit the enzyme and spun in a centrifuge at 400× g for 10 minutes. The resulting cell pellet was resuspended in DMEM containing 10% FBS, 100 units/ml of penicillin G, 100 μg/ml of streptomycin and 100 μg/ml of crude fibroblast growth factor. Cells are cultured in 75 cm^2 flasks in a humidified 5% CO2 atmosphere at 37° C. Cultures were fed twice a week with the same medium and cells were used in assays when approximately 75% confluent. […] At the end of the incubation period the wells were washed, bound radioactivity was solubilized by 1% SDS-0.5 N NaOH and quantitated in a Beckman scintillation counter. […]

[5] = Heparin binding to plastic plates coated with peptide (3H-heparin direct binding)
Procedure: The ability of the synthesized peptide Hep-II to interact with heparin when coated on 96-well plastic plates was evaluated. Stock solutions of peptide Hep-II at a concentration of 500 μg/ml were prepared in phosphate-buffered saline containing 0.02% sodium azide. Fifty μl from each concentration was coated on the 96-well plates and left to dry overnight at 28° C. Then, wells were treated for two hours with […] of 2 mg/ml BSA and 6 mM phosphate, 10 mM NaCl, 68 μM CaCl2, pH 6.8 (wash buffer) in order to minimize non-specific binding. Next 50 μl of ^3 H-heparin (10 μg/ml) was added at increasing concentrations (0 to 1400 ng/well) for two hours at 37° C. The wells were then washed three times with wash buffer containing 0.05% Triton X-100 and finally they were incubated for thirty minutes at 60° C. with 200 μl of 0.5 N NaOH and 1% SDS. The amount of ^3 H-heparin bound at each concentration was quantitated with a Beckman LS-3801 liquid scintillation counter. […] Comparison with data obtained in the past using exactly the same methodology indicate that peptide Hep-II is at least 10 times stronger than peptide Hep-I (see FIG. 3B) and about 100 times stronger than type IV collagen, when used in the same coating concentrations.

[6] = test system: melanoma and endothelial cells; assay: Promotion of cell adhesion and spreading (summary statements); format: cell-based; details: many cell types, including melanoma and endothelial cells
[7] = test system: endothelial cells; assay: Inhibition of the binding of 125I-labeled peptide Hep-II to the cell surface by excess unlabeled peptide; parameters: species or system bovine; details: unlabeled peptide up to 500-fold excess; 15 min. at 4° C.
Procedure: Endothelial cells were grown in culture as discussed in examples 4 and 5A (supra). On the day of the experiment, the cells were harvested by trypsinization (supra) and were co-incubated with 50 μl of peptide Hep-II. 50 μl a constant amount of ^125 I-labeled peptide Hep-II was mixed with increasing concentrations of unlabeled peptide Hep-II or a control peptide (maximal excess of unlabeled peptide: 500-fold over radiolabeled Hep-II). 50 μl of each concentration of unlabeled peptide which was mixed with radiolabeled Hep-II were then added to cells in suspension (5,000 cells per concentration of peptide). The cells were incubated with the mixture of unlabeled-radiolabeled peptide for 15 min. at 4° C. and they were then pelleted. The cells were subsequently washed and bound radioactivity was quantitated as described in example 4. […] These experiments provide confirmation that a specific interaction occur between endothelial-cell surfaces and peptide Hep-II.

[8] = test system: binding of heparin to type IV collagen; assay: Inhibition of heparin binding to type IV collagen coated on plastic by peptide in solution; details: peptide in solution 0.5 mg/ml to 5 μg/ml; 3H-heparin 500 ng per well; type IV collagen coated at 60 μg/ml
Procedure: Peptide Hep-II in solution (and not absorbed to plastic), was screened for the ability to inhibit the binding of heparin to intact, native type IV collagen coated on plastic. This experimental approach avoids problems due to differential coating of peptides in heparin binding assays. Type IV collagen at 60 μg/ml in PBS was coated on 96-well plates, using 50 μl per well and dried overnight at 28° C. The wells were then treated for two hours with 2 mg/ml BSA in wash buffer (described above in Example 1). Peptide Hep-II at various dilutions ranging from 0.5 mg/ml to 5 μg/ml in PBS and CHAPS (cholamido-propyl-dimethyl-ammonio-propane-sulfonate) (a detergent used to avoid non-specific sticking) was co-incubated with a standard amount of ^3 H-heparin (500 ng per well […] final concentration) for two hours at 37° C. and the mixture was then transferred to the […] coated plate (50 μl ) and allowed to incubate for another two hours at 37° C. The wells were then washed and radioactivity was counted as described above. […] Peptide Hep-I is also shown in comparison.

[9] = test system: endothelial cells; assay: Direct binding of 125I-labeled peptide Hep-II to cell surfaces; parameters: species or system bovine; details: about 5,000 cells, 15 min. at 4° C., increasing concentrations
Procedure: Endothelial cells were grown in culture as described in example 4 (supra). Cells used for this type of experiment were not labeled with radioactivity. Unlabeled cells were harvested by trypsinization (supra) on the day of the experiment. About 5,000 cells were mixed with 50 μl of a given concentration of peptide Hep-II in solution. Increasing concentrations of peptide Hep-II were used. The cells were incubated with the iodinated peptide for 15 min. at 4° C. and they were then pelleted by centrifugation. The cells were then resuspended and washed 3 times with DMEM containing 2 mg/ml BSA and 50 mM Hepes. Following the washes, the cells were pelleted for a final time in plastic tubes, the supernatant was decanted and the radioactivity of the pellet was quantitated in a Beckman scintillation counter. The binding of peptide Hep-II to endothelial cells is saturable (FIG. 8)----an indication of specificity. These experiments indicate that peptide Hep-II specifically interacts with the surfaces of endothelial cells.

Substance: dextran
- competition for the binding of tritiated heparin to peptide Hep-II [1]: substantially more dextran is needed to achieve similar levels of competition

Substance: thr-ala-gly-ser-cys-leu-arg-lys-phe-ser-thr-met (TAGSCLRKFSTM) [Hep-I, peptide from the NCl domain of the α1(IV) chain, position 49-60 from the carboxyl terminus; U.S. Pat. No. 4,876,332]
- heparin binding (earlier U.S. Pat. No. 4,876,332) [2]: ability to bind heparin
- promotion of cell adhesion (earlier U.S. Pat. No. 4,876,332) [3]: promote cell adhesion

- heparin binding strength relative to type IV collagen ([5]; same coating concentrations, same methodology): about 100 times
Substance: leu-ala-gly-ser-cys-leu-ala-arg-phe-ser-thr-met (LAGSCLARFSTM) [Hep-II, type IV collagen residues 49-60 from the carboxyl-terminus of the α2 chain of the NCl domain]
- adhesion of endothelial cells to coated substrate [4]: promotes substantial adhesion of endothelial cells even at very low plating concentrations
- heparin binding to peptide coated on plastic ([5]; peptide coated on 96-well plates from 500 μg/ml stock, 3H-heparin 0 to 1400 ng/well, 2 h 37° C.): extremely potent promoter of heparin-binding; also recorded: very potent binder of heparin
- promotion of cell adhesion/attachment and spreading [6]: potent promoter of cell adhesion and spreading; also recorded: potent promoter of cell attachment and spreading
- competition of the binding of radiolabeled Hep-II to the surface of endothelial cells [7]: can be competed only by an excess of unlabeled peptide Hep-II
- inhibition of heparin binding to type IV collagen [8]: strong inhibitor of heparin binding to type IV collagen
- binding of 125I-labeled peptide to endothelial cells [9]: saturable

Substance: heparin
- competition for the binding of tritiated heparin to peptide Hep-II [1]: able to compete for the binding of tritiated heparin to peptide Hep-II at very low concentrations

Substance: chondroitin sulfate
- competition for the binding of tritiated heparin to peptide Hep-II [1]: cannot mimic this effect except at extremely high concentrations
